# Measurements as given in patent USRE40086E1, “Method for treating bacterial infection with novel 7-substituted-9-substituted amino 6-demethyl-6-deoxytetracyclines” (Wyeth Holdings Corporation, priority 1991, dated 2008).
# Like-named read-outs stand apart in the source and are kept apart here.
# What was measured:
# Type in all cases: cell-based
# [1] = test system: S. aureus UBMS 88-5 (tetM); test: MIC, agar dilution; settings: S. aureus UBMS 88-5 TetM; Table IA; unit assumed
# [2] = test system: S. aureus UBMS 88-4 (Sensitive); test: MIC, agar dilution; settings: S. aureus UBMS 88-4; Table IA; unit assumed
# [3] = test system: S. aureus UBMS 90-1 (tetM); test: MIC, agar dilution; settings: S. aureus UBMS 90-1 TetM; Table IA; unit assumed
# [4] = test system: S. aureus UBMS 90-2 (tetM); test: MIC, agar dilution; settings: S. aureus UBMS 90-2 TetM; Table IA; unit assumed
# [5] = test system: S. aureus UBMS 90-3 (Sensitive); test: MIC, agar dilution; settings: S. aureus UBMS 90-3; Table IA; unit assumed
# [6] = test system: S. aureus UBMS 88-7 (tetK); test: MIC, agar dilution; settings: S. aureus UBMS 88-7 TetK; Table IA; unit assumed
# [7] = test system: S. aureus IVES 2943 (meth. resistant); test: MIC, agar dilution; settings: S. aureus IVES 2943; Table IA; unit assumed
# [8] = test system: S. aureus IVES 1983 (meth. resistant); test: MIC, agar dilution; settings: S. aureus IVES 1983; Table IA; unit assumed
# [9] = test system: S. aureus ATCC 29213 (Sensitive); test: MIC, agar dilution; settings: S. aureus ATCC 29213; Table IA; unit assumed
# [10] = test system: S. aureus Smith (Sensitive); test: MIC, agar dilution; settings: S. aureus SMITH (MP); Table IA; unit assumed
# [11] = test system: S. haemolyticus AVAH 88-3; test: MIC, agar dilution; settings: S. hemolyticus AVHAH 88-3; Table IA; unit assumed
# [12] = test system: E. faecalis 12201; test: MIC, agar dilution; settings: Enterococcus 12201; Table IA; unit assumed
# [13] = test system: E. faecalis ATCC 29212; test: MIC, agar dilution; settings: E. faecalis ATCC 29212; Table IA; unit assumed
# [14] = test system: E. coli UBMS 88-1 (tetB); test: MIC, agar dilution; settings: E. coli UBMS 88-1 TetB; Table IA; unit assumed
# [15] = test system: E. coli UBMS 89-1 (tetM); test: MIC, agar dilution; settings: E. coli UBMS 89-1 TetM; Table IA; unit assumed
# [16] = test system: E. coli UBMS 89-2 (Sensitive); test: MIC, agar dilution; settings: E. coli UBMS 89-2 Tet Sens.; Table IA; unit assumed
# [17] = test system: E. coli ATCC 25922; test: MIC, agar dilution; settings: E. coli ATCC 25922; Table IA; unit assumed
# [18] = test system: E. coli UBMS 90-4 (tetM); test: MIC, agar dilution; settings: E. coli UBMS 90-4 TetM; Table IA; unit assumed
# [19] = test system: E. coli J3272 Tet sens.; test: MIC, agar dilution (Table IA); settings: unit assumed
# [20] = test system: E. coli MC4100 Tet sens.; test: MIC, agar dilution (Table IA); settings: unit assumed
# [21] = test system: E. coli MC4100 TetB; test: MIC, agar dilution (Table IA); settings: unit assumed
# [22] = test system: E. coli PRP1 TetA; test: MIC, agar dilution (Table IA); settings: unit assumed
# [23] = test system: E. coli J3272 TetC; test: MIC, agar dilution (Table IA); settings: unit assumed
# [24] = test system: E. coli J2175; test: MIC, agar dilution (Table IA); settings: unit assumed
# [25] = test system: E. coli BAJ9003; test: MIC, agar dilution (Table IA)
# [26] = test system: E. coli UBMS 90-5; test: MIC, agar dilution (Table IA); settings: unit assumed
# [27] = test system: E. coli #311 (MP); test: MIC, agar dilution (Table IA); settings: unit assumed
# [28] = test system: E. coli J3272 TetD; test: MIC, agar dilution (Table IA); settings: unit assumed
# [29] = test system: S. mariescens FDOR 8733; test: MIC, agar dilution (Table IA); settings: unit assumed
# [30] = test system: X. maltophilia NEMC 87210; test: MIC, agar dilution (Table IA); settings: unit assumed
# [31] = test system: Ps. acruginosa ATCC 27853; test: MIC, agar dilution (Table IA); settings: unit assumed
# [32] = test system: S. aureus NEMC 8769/89-4; test: MIC, agar dilution (Table IA); settings: unit assumed
# [33] = test system: S. aureus ROSE (MP); test: MIC, agar dilution (Table IA); settings: unit assumed
Compound,Antibacterial activity (MIC) [1],Antibacterial activity (MIC) [2],Antibacterial activity (MIC) [3],Antibacterial activity (MIC) [4],Antibacterial activity (MIC) [5],Antibacterial activity (MIC) [6],Antibacterial activity (MIC) [7],Antibacterial activity (MIC) [8],Antibacterial activity (MIC) [9],Antibacterial activity (MIC) [10],Antibacterial activity (MIC) [11],Antibacterial activity (MIC) [12],Antibacterial activity (MIC) [13],Antibacterial activity (MIC) [14],Antibacterial activity (MIC) [15],Antibacterial activity (MIC) [16],Antibacterial activity (MIC) [17],Antibacterial activity (MIC) [18],Antibacterial activity (MIC) [20],Antibacterial activity (MIC) [21],other results
CN(C)c1cc(NC(=O)CNCC(=O)O)c(O)c2c1CC1CC3C(N(C)C)C(O)=C(C(N)=O)C(=O)C3(O)C(O)=C1C2=O (stereo not shown) [KKK],> 32 µg/mL,32 µg/mL,> 32 µg/mL,32 µg/mL,16 µg/mL,> 32 µg/mL,> 32 µg/mL,> 32 µg/mL,32 µg/mL,16 µg/mL,> 32 µg/mL,> 32 µg/mL,16 µg/mL,> 32 µg/mL,> 32 µg/mL,> 32 µg/mL,> 32 µg/mL,> 32 µg/mL,32 µg/mL,> 32 µg/mL,Antibacterial activity (MIC) [19]: > 32 µg/mL; Antibacterial activity (MIC) [22]: > 32 µg/mL; Antibacterial activity (MIC) [23]: > 32 µg/mL; Antibacterial activity (MIC) [24]: > 32 µg/mL; Antibacterial activity (MIC) ([25]; unit assumed): 16 µg/mL; Antibacterial activity (MIC) [26]: > 32 µg/mL; Antibacterial activity (MIC) [27]: > 32 µg/mL; Antibacterial activity (MIC) [28]: > 32 µg/mL; Antibacterial activity (MIC) [29]: > 32 µg/mL; Antibacterial activity (MIC) [30]: > 32 µg/mL; Antibacterial activity (MIC) [31]: > 32 µg/mL; Antibacterial activity (MIC) [32]: 32 µg/mL; Antibacterial activity (MIC) [33]: > 32 µg/mL
"CN(C)CC(=O)Nc1cc(N(C)C)c2c(c1O)C(=O)C1=C(O)[C@]3(O)C(=O)C(C(=O)NCN4CCCC4)=C(O)[C@@H](N(C)C)C3CC1C2 (stereo partly drawn) [FFF, [4S-(4alpha,12aalpha)]-4,7-Bis(dimethylamino)-9-[[(dimethylamino)acetyl]amino]-1,4,4a,5,5a,6,11,12a-octahydro-3,10,12,12a-tetrahydroxy-1,11-dioxo-N-(1-pyrrolidinylmethyl)-2-naphthacenecarboxamide]",0.12 µg/mL,0.12 µg/mL,0.12 µg/mL,0.12 µg/mL,0.12 µg/mL,1 µg/mL,2 µg/mL,2 µg/mL,0.12 µg/mL,0.12 µg/mL,0.25 µg/mL,0.12 µg/mL,0.06 µg/mL,0.25 µg/mL,0.12 µg/mL,0.25 µg/mL,0.12 µg/mL,0.12 µg/mL,0.06 µg/mL,0.25 µg/mL,Antibacterial activity (MIC) [22]: 2 µg/mL; Antibacterial activity (MIC) [23]: 1 µg/mL; Antibacterial activity (MIC) [24]: 0.25 µg/mL; Antibacterial activity (MIC) [25]: ≧0.015; Antibacterial activity (MIC) [26]: 0.25 µg/mL; Antibacterial activity (MIC) [27]: 0.25 µg/mL; Antibacterial activity (MIC) [28]: 0.12 µg/mL; Antibacterial activity (MIC) [29]: 4 µg/mL; Antibacterial activity (MIC) [30]: 0.25 µg/mL; Antibacterial activity (MIC) [31]: 8 µg/mL; Antibacterial activity (MIC) [32]: 0.25 µg/mL; Antibacterial activity (MIC) [33]: 2 µg/mL
"CCCCN(C)CC(=O)Nc1cc(N(C)C)c2c(c1O)C(=O)C1=C(O)C3(O)C(=O)C(C(N)=O)=C(O)C(N(C)C)C3CC1C2.Cl.Cl (stereo not drawn) [CCC, [4S-(4alpha,12aalpha)]-9-[[(Butylmethylamino)acetyl]amino]-4,7-Bis(dimethylamino)-1,4,4a,5,5a,6,11,12a-octahydro-3,10-12,12a-tetrahydroxy-1,11-dioxo-2-naphthacenecarboxamide dihydrochloride]",0.5 µg/mL,0.5 µg/mL,1 µg/mL,0.25 µg/mL,0.25 µg/mL,1 µg/mL,1 µg/mL,1 µg/mL,0.5 µg/mL,0.5 µg/mL,0.5 µg/mL,0.25 µg/mL,0.12 µg/mL,1 µg/mL,0.25 µg/mL,2 µg/mL,1 µg/mL,1 µg/mL,0.25 µg/mL,2 µg/mL,Antibacterial activity (MIC) [22]: 2 µg/mL; Antibacterial activity (MIC) [23]: 1 µg/mL; Antibacterial activity (MIC) [24]: 2 µg/mL; Antibacterial activity (MIC) ([25]; unit assumed): 0.12 µg/mL; Antibacterial activity (MIC) [26]: 2 µg/mL; Antibacterial activity (MIC) [27]: 1 µg/mL; Antibacterial activity (MIC) [28]: 0.5 µg/mL; Antibacterial activity (MIC) [29]: 16 µg/mL; Antibacterial activity (MIC) [30]: 0.25 µg/mL; Antibacterial activity (MIC) [31]: > 32 µg/mL; Antibacterial activity (MIC) [32]: 0.12 µg/mL; Antibacterial activity (MIC) [33]: 2 µg/mL
